# Literature values, collected in patent US7060463B2 (priority 2001, dated 2006).
# Target: GST-Flag-rhARLBD (Macaca mulatta, UniProt Q6QT55)
# Sequence (Q6QT55 601-895): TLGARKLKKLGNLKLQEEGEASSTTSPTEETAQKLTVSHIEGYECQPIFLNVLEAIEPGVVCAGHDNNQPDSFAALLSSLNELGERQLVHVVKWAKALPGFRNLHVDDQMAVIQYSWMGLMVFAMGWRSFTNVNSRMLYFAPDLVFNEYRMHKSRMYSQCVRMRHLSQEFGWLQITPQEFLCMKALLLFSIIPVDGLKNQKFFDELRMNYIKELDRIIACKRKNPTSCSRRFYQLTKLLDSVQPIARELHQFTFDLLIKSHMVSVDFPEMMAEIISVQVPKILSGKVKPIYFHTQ
smiles,measurement,value
"C[C@]1(O)CC[C@H]2[C@@H]3CCC4=CC(=O)CCC4=C3C=C[C@@]21C [R1881, 17b-hydroxy-17-methylestra-4,9,11-trien-3-one]",IC50,~1 nM
